Target: recombinant Sphingomyelinase D (SMase D) from L. laeta venom (Loxosceles laeta, UniProt Q8I914)
Assay: biochemical

Sequence of recombinant Sphingomyelinase D (SMase D) from L. laeta venom (Q8I914 27-311 limits assumed): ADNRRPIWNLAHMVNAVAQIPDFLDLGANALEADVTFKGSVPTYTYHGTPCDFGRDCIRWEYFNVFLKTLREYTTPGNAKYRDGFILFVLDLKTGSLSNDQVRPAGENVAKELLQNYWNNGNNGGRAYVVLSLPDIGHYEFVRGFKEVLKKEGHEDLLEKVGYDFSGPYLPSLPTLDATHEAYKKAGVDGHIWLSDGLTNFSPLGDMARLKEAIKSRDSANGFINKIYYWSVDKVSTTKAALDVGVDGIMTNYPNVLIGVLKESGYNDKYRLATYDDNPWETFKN

SMILES: Cc1cc(OS(=O)(=O)c2ccc(Cl)cc2)cc2c1C(=O)/C(=C/c1cccnc1)O2 [compound 6, 4-methyl-3-oxo-2–(3-pyridylmethylene)benzo[3,4-b]furan-6-yl 4-chlorobenzenesulphonate]
- Ki: 590 ± 230 nM

SMILES: Cc1ccc(S(=O)(=O)Oc2cc(N)nc(SCc3ccc(C#N)cc3)n2)cc1 [compound 1, 6-amino-2-((4-cyanobenzyl)thio)pyrimidin-4-yl 4-methylbenzenesulphonate]
- Ki: 540 ± 130 nM

SMILES: Cc1[nH]c2ccccc2c1/C=N/NS(=O)(=O)c1ccc(Br)cc1 [compound 5, 4-bromo-N-[(E)-(2-methyl-1H-indol-3-yl)methyleneamino]benzenesulfonamide]
- Ki: 490 ± 100 nM

— article PMC6327989 (Journal of Enzyme Inhibition and Medicinal Chemistry, 2019)
